Data from PubChem BioAssay AID602480 (National Center for Advancing Translational Sciences (NCATS), 2012).
Values after ≈ are worked out from the molar mass of the structure shown.

Test system: aqueous solubility in PBS
Assay: qHTS Assay for Inhibitors of Bacillus subtilis Sfp phosphopantetheinyl transferase (PPTase): Aqueous Solubility in PBS
Text: PPTases are responsible for the activation of a variety of pathogen-associated virulence factors. Among these compounds are toxins such as mycolactone from Mycobacterium ulcerans, siderophores such as vibriobactin from Vibrio cholerae or mycobactin from Mycobacterium tuberculosis, as well as the mycolic acids which form the waxy cell wall of Mycobacteria. The biosyntheses of these natural products are considered attractive targets for drug design. After a large qHTS and several follow-up assays, a small molecule was identified and this in vitro ADME assay serves to better characterize its properties.
This profiling assay looks at the […] of a small molecule in PBS (pH 7.4). This is an important parameter as it has significant impact on in vivo results, such as uptake, distribution, transport, and eventually bioavailability. This outcome is also of utmost importance for decisions concerning assay data and SAR strategy.
NIH Chemical Genomics Center [NCGC]
NIH Molecular Libraries Probe Centers Network [MLPCN]
Assay Submitter (PI): Michale Burkart, University of California, San Diego
1. 8ul of reference and test compound stock solution were added to 392ul 100mM phosphate buffer (pH 7.4)
2. Sample tubes were shaken for 1 hr (1000 rpm) at room temperature
3. […]
5. Concentration of the supernatant was determined by LC-UV or LC-MS/MS

solubility: 20 µM (≈ 8.64 µg/mL)
Structure (SMILES): COc1ccnc(NC(=S)N2CCN(c3ncc(C(F)(F)F)cc3Cl)CC2)c1
